Measurements reported in ChEMBL document CHEMBL1148865, “A long-acting selective neuropeptide Y2 receptor PEGylated peptide agonist reduces food intake in mice” (Bioorg Med Chem Lett, 2007).

Experiments:
[1] = biological target: T1, Neuropeptide Y receptor type 2 (Homo sapiens, UniProt P49146); assay: Agonist activity at human NPY2 receptor in KAN-TS cells by [35S]GTP-gamma-S binding assay; type: functional, cell-based
T1 sequence (P49146 whole entry): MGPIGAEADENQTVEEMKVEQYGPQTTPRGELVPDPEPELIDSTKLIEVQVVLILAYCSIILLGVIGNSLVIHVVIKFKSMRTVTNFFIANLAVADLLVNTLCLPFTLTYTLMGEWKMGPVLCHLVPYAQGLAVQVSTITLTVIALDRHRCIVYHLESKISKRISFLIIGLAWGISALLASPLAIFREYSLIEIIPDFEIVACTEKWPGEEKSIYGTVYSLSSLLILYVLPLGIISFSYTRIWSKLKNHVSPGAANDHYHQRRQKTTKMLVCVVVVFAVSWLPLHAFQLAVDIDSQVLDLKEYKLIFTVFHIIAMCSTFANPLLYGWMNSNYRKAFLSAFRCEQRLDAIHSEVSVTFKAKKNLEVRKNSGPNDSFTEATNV

[2] = biological target: T2, Neuropeptide Y receptor type 2 (Homo sapiens) (UniProt P49146); assay: Agonist activity at human NPY2 receptor in KAN-TS cells at 1 uM by [35S]GTP-gamma-S binding assay; type: functional, cell-based
T2 sequence (whole entry): T1 sequence (P49146 whole entry)

[3] = biological target: T1, Neuropeptide Y receptor type 2; assay: Displacement of [125I]PYY from human NPY2 receptor in KAN-TS cells by SPA assay; type: cell-based
[4] = biological target: T3, Neuropeptide Y receptor type 1 (Homo sapiens, UniProt P25929); assay: Displacement of [125I]PYY from human NPY1 receptor in SK-N-MC cells; type: cell-based
T3 sequence (P25929 whole entry): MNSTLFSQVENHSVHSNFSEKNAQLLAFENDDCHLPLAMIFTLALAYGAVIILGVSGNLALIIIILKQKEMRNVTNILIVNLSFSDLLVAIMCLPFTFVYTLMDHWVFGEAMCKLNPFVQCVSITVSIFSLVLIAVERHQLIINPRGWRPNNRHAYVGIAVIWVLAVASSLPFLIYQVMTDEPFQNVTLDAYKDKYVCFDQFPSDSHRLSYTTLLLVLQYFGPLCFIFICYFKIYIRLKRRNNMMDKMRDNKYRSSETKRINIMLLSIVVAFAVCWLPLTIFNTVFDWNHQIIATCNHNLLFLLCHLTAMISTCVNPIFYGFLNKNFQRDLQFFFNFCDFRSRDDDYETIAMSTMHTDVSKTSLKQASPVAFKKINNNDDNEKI

[5] = biological target: T4, Neuropeptide Y receptor type 5 (Homo sapiens, UniProt Q15761); assay: Displacement of [125I]PYY from human NPY5 receptor in HEK293 cells; type: cell-based
T4 sequence (Q15761 whole entry): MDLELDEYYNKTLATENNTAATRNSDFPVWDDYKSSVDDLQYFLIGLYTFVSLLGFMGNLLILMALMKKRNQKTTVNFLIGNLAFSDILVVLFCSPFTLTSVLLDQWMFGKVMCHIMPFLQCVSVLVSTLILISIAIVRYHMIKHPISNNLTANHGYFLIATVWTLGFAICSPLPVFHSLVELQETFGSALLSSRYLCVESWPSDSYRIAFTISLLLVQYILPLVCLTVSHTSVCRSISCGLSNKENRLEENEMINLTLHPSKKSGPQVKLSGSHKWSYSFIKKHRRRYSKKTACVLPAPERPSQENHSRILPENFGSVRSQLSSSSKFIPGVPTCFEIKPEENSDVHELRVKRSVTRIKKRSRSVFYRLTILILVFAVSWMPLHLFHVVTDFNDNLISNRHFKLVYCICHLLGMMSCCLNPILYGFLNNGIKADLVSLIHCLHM

[6] = test system: Mus musculus; assay: Reduction of food intake in C57BL/6 mouse at 10 mg/kg, sc after 1 to 24 hrs; type: functional; set-up: scale not given: the % may be the effect or the level left; details: route subcutaneous

Substance	EC50 [1]	E/Emax [2]	Ki [3]	Ki [4]	Ki [5]	Activity [6]
Ac-LRHYLNLLTRQRYC-NH2	160 nM	81%	200 nM	> 1000 nM	> 1000 nM	
Ac-CLRHYLNLLTRQRY-NH2	33 nM	94%	8.2 nM	> 1000 nM	> 1000 nM	
Ac-LRHYLNLLTRQRY-NH2	6 nM	100%	5 nM	210 nM	> 1000 nM	6%
